Patent publication US11076593B2, “Reperfusion with omega-3 glycerides promotes donor organ protection for transplantation” (The Trustees of Columbia University in the City of New York, priority 2013, dated 2021)

Experiments:
[1] = test system: p10 C57BL/6J neonatal mice, cerebral H/I; test: Unilateral cerebral hypoxia-ischemia (H/I) in neonatal mice, TTC infarct volume at 24 hr; type: in vivo, mouse; settings: pre-H/I protocol, two i.p. doses; 24 hr reperfusion
Description: Three-day-old C57BL/6J neonatal mice of both genders were purchased from Jackson Laboratories (Bar Harbor, Me.) with their birth mother. The Rice-Vannucci model of H/I was used and modified to p10 neonatal mice.^5 Briefly, on postnatal day 10 H/I was induced by the ligation of the right common carotid artery, which was further cauterized and cut under isoflurane anesthesia. The investigator was blinded to the lipid emulsion treatment during the surgery and after the surgery. The entire surgical procedure was completed within 5 min for each mouse. Pups were then allowed to recover with their dams for 1.5 hr. Surrounding temperature during experiments was kept at 28° C. Mice were then exposed to systemic hypoxia for 15 min in a hypoxic chamber in a neonatal isolette (humidified 8% oxygen/nitrogen, Tech Air Inc., White Plains, N.Y.).^5 The ambient temperature inside the chamber during hypoxia was stabilized at 37±0.3° C. […]
After 24 hr of reperfusion, the animals were sacrificed by decapitation and brains were immediately harvested. […] Using Adobe Photoshop and NIH Image J imaging applications, planar areas of infarction on serial sections were summed to obtain the volume (mm^3) of infarcted tissue, which was divided by the total (infarcted+non-infarcted) volume of the hemisphere ipsilateral to carotid artery ligation, and expressed as a percentage of total volume. […]

[2] = test system: isolated C57BL/6 mouse hearts; test: Ex vivo I/R: release of injury markers (LDH, creatine kinase) into the perfusate
Description: Evidence supporting the methods and products of the invention has been established in an ex vivo model using hearts rapidly removed from ketamine/xylazine anesthetized 12-14 weeks old C57BL/6 mice weighing between 25-30 g that were retrograde perfused in a non-recirculating mode, using an isovolumic perfusion system through the well-known Langendorf System (FIG. 1). In this system isolated mouse hearts were initially perfused with a perfusion buffer containing KREB's solution containing (in mM) the following: 118 NaCl, 4.7 KCl, 2.5 CaCl2, 1.2 MgCl2, 25 NaHCO3, 5 Glucose, 0.4 Palmitate, 0.4 BSA, and 70 mU/1 insulin. […]
After the induced ischemia, control hearts were reperfused using the same Kreb's buffer. […] TG fatty acid (FA) composition (by weight) of the emulsion used in experiments 1-9 was determined by gas liquid chromatography and was as follows for the n-3 emulsion: C14:0, 5.4%; C16:0, 14.8%; C16:1, 8.4%; C18:0, 2.8%; C18:1, 12.7%; C18:2 (n-6), 2.6%; C18:3 (n-3), 0.8%; C20:1, 1.2%; C20:4 (n-6), 1.9%; C20:5 (EPA, n-3), 18.3%; C22:1, 0.2%; C22:4, 0.6%; C22:5, 2.6%; and C22:6 ([…], n-3), 27.7. […]
Myocardial injury was assessed by measuring the release of lactate dehydrogenase (LDH) from the effluent in the ex vivo I/R system and from blood samples in the in vivo LAD system, using the commercially available enzymatic kits (Pointe Scientific, INC, MI USA) as published earlier.^1,2 […]

| SMILES | infarct volume compared to saline control [1] | LDH release compared to I/R control hearts ([2]; SB-216763 (3 μM) plus 0.3% n-3 TG emulsion) | LDH release (fold change) compared to I/R control ([2]; inhibitor alone, from baseline through ischemia and reperfusion, 10 μM LY-294002, 3 μM SB216763) |
| --- | --- | --- | --- |
| Cc1c(C)c2c(c(C)c1O)CC[C@@](C)(CCC[C@H](C)CCC[C@H](C)CCCC(C)C)O2 [alpha-tocopherol] | no significant difference |  |  |
| Cn1cc(C2=C(c3ccc(Cl)cc3Cl)C(=O)NC2=O)c2ccccc21 [SB216763] |  | significantly inhibited LDH release | significantly inhibited LDH release |
